Experimental data taken from patent US11793849B2, “Method of Chinese herbal medicine extract used for treating multiple diseases caused by drug resistant bacteria infection” (priority 2016, dated 2023).
Converted amounts (≈) assume the structure as drawn. Read-outs that look alike come from different tables or passages of the source.

What was measured:
MDRPA = experiment: Checkerboard assay (combined-use MIC, FIC); type: cell-based, Pseudomonas aeruginosa; details: for FIC, all strains / MIC50 of the antibiotic after combined use / MIC90 of the antibiotic after combined use / reduction of the antibiotic's MIC50 vs single use / reduction of the antibiotic's MIC90 vs single use / share of strains with FIC ≤ 0.5: 20 MDRPAs; for combined-use MIC: EA (P. clypearia water extract) combined with AMK
Experimental: (§1) Test methods of the sensibilization effects of the test product to similar antibiotics: it is operated by referring to a checkerboard assay recommended by NCCLS.
(§2) The checkerboard assay is performed in a 96-pore sterile culture plate.
(§3) Calculation of a Fractional Inhibitory Concentration (FIC): FIC=S20b combined-use MIC/S20b single-use MIC+antibiotic combined-use MIC/antibiotic single-use MIC. By calculating the FIC, the combined antibacterial interaction between the EA and the antibiotic is evaluated, with synergistic effect for FIC≤0.5, additive effect for 0.5<FIC≤1, indifferent effect for 1<FIC≤2 and antagonistic effect for FIC>2. According to a sterile growth pore, the optimum concentration ratio between the EA and the antibiotic is founded out. At last, the effect of the EA to strengthen the efficacy of the antibiotic is evaluated.

ESBL-producing ECO [1] = experiment: MIC determination, microdilution broth method; type: cell-based, Escherichia coli
Experimental: Determination methods of a Minimal Inhibitory Concentration (MIC) and a Minimum Bactericidal Concentration (MBC) of a test product: the MIC and the MBC of the Pithecellobium clypearia Benth water or ethanol extract to the MDRAB are determined by a microdilution broth method. And it is operated by referring to the microdilution broth method recommended by National Committee for Clinical Laboratory Standards (NCCLS).
By determining the MIC and the MBC of the drug and making statistics of the data to obtain MIC50, MIC90, MBC50 and MBC90, the effect of the MDRA resistance of the drug is evaluated.

ESBL-producing ECO [2] = experiment: Checkerboard assay (combined-use MIC, FIC); type: cell-based, Escherichia coli; details: 20 ESBL-producing ECOs
Experimental: as §1, §2, §3

ATCC25922 [3] = experiment: MIC determination, control strain; type: cell-based
ATCC25922 [4] = experiment: MIC determination, control strain ATCC25922; type: cell-based; details: EA = 95% ethanol extract
[5] = antibiotic with 10% ethanol extract
[6] = antibiotic with 60% ethanol extract
[7] = antibiotic with 95% ethanol extract
[8] = antibiotic with EA (water extract)
[9] = EA = 10% ethanol extract, 20 ESBL-producing ECO strains
[10] = EA = 60% ethanol extract, 20 ESBL-producing ECO strains
[11] = EA = 95% ethanol extract, ESBL-producing ECOs
[12] = EA = water extract, 20 ESBL-producing ECO strains
[13] = single use, 20 ESBL-producing ECOs, section of the 10% ethanol extract
[14] = single use, 20 ESBL-producing ECOs, section of the 60% ethanol extract
[15] = single use, 20 ESBL-producing ECOs, section of the 95% ethanol extract

## NCC[C@H](O)C(=O)N[C@@H]1C[C@H](N)[C@@H](O[C@H]2O[C@H](CN)[C@@H](O)[C@H](O)[C@H]2O)[C@H](O)[C@H]1O[C@H]1O[C@H](CO)[C@@H](O)[C@H](N)[C@H]1O [AMK, Amikacin]
MDRPA; [5]
  FIC, all strains: ≤ 2
  MIC50 of the antibiotic after combined use: 0.0625 µg/mL
  MIC90 of the antibiotic after combined use: 4 µg/mL
  reduction of the antibiotic's MIC50 vs single use: 93.75%
  reduction of the antibiotic's MIC90 vs single use: 87.5%
  share of strains with FIC ≤ 0.5: 30%
MDRPA; [6]
  FIC, all strains: ≤ 2
  MIC50 of the antibiotic after combined use: 0.0625 µg/mL
  MIC90 of the antibiotic after combined use: 2 µg/mL
  reduction of the antibiotic's MIC50 vs single use: 93.75%
  reduction of the antibiotic's MIC90 vs single use: 93.75%
  share of strains with FIC ≤ 0.5: 20%
MDRPA; [7]
  FIC, all strains: ≤ 2
  MIC50 of the antibiotic after combined use: 0.12 µg/mL
  MIC90 of the antibiotic after combined use: 4 µg/mL
  reduction of the antibiotic's MIC50 vs single use: 87.5%
  reduction of the antibiotic's MIC90 vs single use: 87.5%
  share of strains with FIC ≤ 0.5: 40%
MDRPA; [8]
  FIC, all strains: ≤ 2
  MIC50 of the antibiotic after combined use: 0.0625 µg/mL
  MIC90 of the antibiotic after combined use: 2 µg/mL
  reduction of the antibiotic's MIC50 vs single use: 93.75%
  reduction of the antibiotic's MIC90 vs single use: 93.75%
  share of strains with FIC ≤ 0.5: 35%
MDRPA; strain P1
  combined-use MIC: 0.0625 µg/mL
MDRPA; strain P2
  combined-use MIC: 0.0625 µg/mL
MDRPA; strain P3
  combined-use MIC: 1 µg/mL
MDRPA; strain P4
  combined-use MIC: 0.5 µg/mL
MDRPA; strain P5
  combined-use MIC: 0.0625 µg/mL
MDRPA; strain P6
  combined-use MIC: 64 µg/mL
MDRPA; strain P7
  combined-use MIC: 0.0625 µg/mL
MDRPA; strain P8
  combined-use MIC: 0.5 µg/mL
MDRPA; strain P9
  combined-use MIC: 0.0625 µg/mL
MDRPA; strain P10
  combined-use MIC: 1 µg/mL
MDRPA; strain P11
  combined-use MIC: 0.5 µg/mL
MDRPA; strain P12
  combined-use MIC: 8 µg/mL
MDRPA; strain P13
  combined-use MIC: 0.0625 µg/mL
MDRPA; strain P14
  combined-use MIC: 0.0625 µg/mL
MDRPA; strain P15
  combined-use MIC: 0.0625 µg/mL
MDRPA; strain P16
  combined-use MIC: 0.0625 µg/mL
MDRPA; strain P17
  combined-use MIC: 0.0625 µg/mL
MDRPA; strain P18
  combined-use MIC: 4 µg/mL
MDRPA; strain P19
  combined-use MIC: 0.0625 µg/mL
MDRPA; strain P20
  combined-use MIC: 1 µg/mL
ESBL-producing ECO [1]; [9]
  MIC50: 16 µg/mL (≈ 27.3 µM)
  MIC90: 64 µg/mL (≈ 109 µM)
  MIC Range: 4 to 512 µg/mL
ESBL-producing ECO [1]; [10]
  MIC50: 16 µg/mL (≈ 27.3 µM)
  MIC90: 64 µg/mL (≈ 109 µM)
  MIC Range: 4 to 512 µg/mL
ESBL-producing ECO [1]; [11]
  MIC50: 16 µg/mL (≈ 27.3 µM)
  MIC90: 64 µg/mL (≈ 109 µM)
  MIC Range: 4 to 512 µg/mL
ESBL-producing ECO [1]; [12]
  MIC50: 16 µg/mL (≈ 27.3 µM)
  MIC90: 64 µg/mL (≈ 109 µM)
  MIC Range: 4 to 512 µg/mL
ESBL-producing ECO [1]; Escherichia coli
  MIC: 128 µg/mL (≈ 219 µM)
ESBL-producing ECO [1]; Escherichia coli, single use, 20 ESBL-producing ECOs, section of the water extract, read-out: MIC50
  MIC50: 16 µg/mL (≈ 27.3 µM)
ESBL-producing ECO [1]; Escherichia coli, single use, 20 ESBL-producing ECOs, section of the water extract, read-out: MIC90
  MIC90: 64 µg/mL (≈ 109 µM)
ESBL-producing ECO [1]; [13]
  MIC50: 16 µg/mL (≈ 27.3 µM)
  MIC90: 64 µg/mL (≈ 109 µM)
ESBL-producing ECO [1]; [14]
  MIC50: 16 µg/mL (≈ 27.3 µM)
  MIC90: 64 µg/mL (≈ 109 µM)
ESBL-producing ECO [1]; [15]
  MIC50: 16 µg/mL (≈ 27.3 µM)
  MIC90: 64 µg/mL (≈ 109 µM)
ESBL-producing ECO [2]; [5]
  FIC, all strains: ≤ 2
  MIC50 of the antibiotic after combined use: 4 µg/mL
  MIC90 of the antibiotic after combined use: 16 µg/mL
  reduction of the antibiotic's MIC50 vs single use: 75%
  reduction of the antibiotic's MIC90 vs single use: 75%
  share of strains with FIC ≤ 0.5: 50%
ESBL-producing ECO [2]; [6]
  FIC, all strains: ≤ 2
  MIC50 of the antibiotic after combined use: 4 µg/mL
  MIC90 of the antibiotic after combined use: 8 µg/mL
  reduction of the antibiotic's MIC50 vs single use: 75%
  share of strains with FIC ≤ 0.5: 70%
ESBL-producing ECO [2]; [7]
  FIC, all strains: ≤ 2
  MIC50 of the antibiotic after combined use: 4 µg/mL
  MIC90 of the antibiotic after combined use: 16 µg/mL
  reduction of the antibiotic's MIC50 vs single use: 75%
  reduction of the antibiotic's MIC90 vs single use: 75%
  share of strains with FIC ≤ 0.5: 50%
ESBL-producing ECO [2]; antibiotic with water extract
  FIC, all strains: ≤ 2
  MIC50 of the antibiotic after combined use: 4 µg/mL
  MIC90 of the antibiotic after combined use: 16 µg/mL
  reduction of the antibiotic's MIC50 vs single use: 75%
  reduction of the antibiotic's MIC90 vs single use: 75%
  share of strains with FIC ≤ 0.5: 50%
ATCC25922 [3]; EA = 10% ethanol extract
  MIC: 4 µg/mL (≈ 6.83 µM)
ATCC25922 [3]; EA = 60% ethanol extract
  MIC: 4 µg/mL (≈ 6.83 µM)
ATCC25922 [3]; EA = water extract, read-out: MIC
  MIC: 4 µg/mL (≈ 6.83 µM)
ATCC25922 [4]
  MIC: 4 µg/mL (≈ 6.83 µM)
